The source of these data is patent publication US20240316022A1 (TYRA BIOSCIENCES, INC., priority 2021, published 2024).

The structures appear in SMILES notation.

Assay in all cases: Kinase binding assay (kinase-tagged T7 phage, qPCR), Kd
For orientation: Quantitative PCR measures a nucleic acid by following its amplification.

For test [1], the target named is T1, FGFR1 (Homo sapiens, UniProt P11362).
T1 construct: made in house; host or cells: E. coli derived from BL21, infected with T7 phage
T1 sequence (P11362 22-822): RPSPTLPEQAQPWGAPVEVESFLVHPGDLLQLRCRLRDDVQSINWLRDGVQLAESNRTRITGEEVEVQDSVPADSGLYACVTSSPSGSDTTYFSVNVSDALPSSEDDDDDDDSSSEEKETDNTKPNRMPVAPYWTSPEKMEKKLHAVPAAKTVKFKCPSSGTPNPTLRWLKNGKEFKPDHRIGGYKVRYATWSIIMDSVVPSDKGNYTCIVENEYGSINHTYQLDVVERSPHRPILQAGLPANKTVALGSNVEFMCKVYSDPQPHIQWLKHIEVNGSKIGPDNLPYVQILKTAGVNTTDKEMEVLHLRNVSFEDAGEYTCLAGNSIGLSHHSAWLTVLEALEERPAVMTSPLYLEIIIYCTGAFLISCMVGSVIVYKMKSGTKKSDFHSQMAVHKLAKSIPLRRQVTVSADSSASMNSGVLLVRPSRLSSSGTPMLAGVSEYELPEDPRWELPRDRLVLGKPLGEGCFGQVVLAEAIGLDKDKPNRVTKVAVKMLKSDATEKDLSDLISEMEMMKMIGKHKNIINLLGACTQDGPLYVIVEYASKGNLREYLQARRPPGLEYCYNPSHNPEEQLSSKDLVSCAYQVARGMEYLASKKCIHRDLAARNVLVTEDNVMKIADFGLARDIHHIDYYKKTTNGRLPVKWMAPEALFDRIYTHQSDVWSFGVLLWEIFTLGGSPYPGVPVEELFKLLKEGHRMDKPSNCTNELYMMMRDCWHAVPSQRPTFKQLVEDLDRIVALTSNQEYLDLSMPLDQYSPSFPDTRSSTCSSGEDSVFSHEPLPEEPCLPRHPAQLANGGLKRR
To be noted: read-out: FGFR1 (Kd nM).

In test [2] the target is T2, FGFR2 (Homo sapiens, UniProt P21802).
T2 construct: made in house; host or cells: E. coli derived from BL21, infected with T7 phage
T2 sequence (P21802 22-821): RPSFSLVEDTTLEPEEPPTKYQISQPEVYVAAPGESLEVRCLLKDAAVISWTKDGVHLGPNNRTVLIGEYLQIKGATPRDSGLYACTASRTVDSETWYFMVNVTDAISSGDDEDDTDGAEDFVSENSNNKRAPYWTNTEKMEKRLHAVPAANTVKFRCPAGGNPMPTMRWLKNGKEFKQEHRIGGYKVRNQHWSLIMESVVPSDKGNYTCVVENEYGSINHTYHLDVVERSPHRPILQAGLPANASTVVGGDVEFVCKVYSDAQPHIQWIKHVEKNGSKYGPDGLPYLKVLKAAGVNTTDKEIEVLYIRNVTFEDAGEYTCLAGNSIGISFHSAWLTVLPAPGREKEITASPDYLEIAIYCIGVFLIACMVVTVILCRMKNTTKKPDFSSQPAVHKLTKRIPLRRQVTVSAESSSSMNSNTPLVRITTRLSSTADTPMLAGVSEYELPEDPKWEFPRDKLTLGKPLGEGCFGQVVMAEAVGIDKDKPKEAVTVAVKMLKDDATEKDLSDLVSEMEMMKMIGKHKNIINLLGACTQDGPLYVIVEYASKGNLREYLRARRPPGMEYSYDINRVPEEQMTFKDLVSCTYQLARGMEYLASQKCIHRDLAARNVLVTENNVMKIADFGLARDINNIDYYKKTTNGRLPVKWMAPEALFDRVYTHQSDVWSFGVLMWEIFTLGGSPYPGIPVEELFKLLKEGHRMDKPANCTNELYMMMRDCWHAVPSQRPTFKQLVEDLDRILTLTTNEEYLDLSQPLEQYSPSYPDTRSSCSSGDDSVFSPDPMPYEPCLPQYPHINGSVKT
The settings on record: read-out: FGFR2 (Kd nM).

The target of test [3] is T3, FGFR3 (Homo sapiens, UniProt P22607).
T3 construct: made in house; host or cells: E. coli derived from BL21, infected with T7 phage
T3 sequence (P22607 23-806): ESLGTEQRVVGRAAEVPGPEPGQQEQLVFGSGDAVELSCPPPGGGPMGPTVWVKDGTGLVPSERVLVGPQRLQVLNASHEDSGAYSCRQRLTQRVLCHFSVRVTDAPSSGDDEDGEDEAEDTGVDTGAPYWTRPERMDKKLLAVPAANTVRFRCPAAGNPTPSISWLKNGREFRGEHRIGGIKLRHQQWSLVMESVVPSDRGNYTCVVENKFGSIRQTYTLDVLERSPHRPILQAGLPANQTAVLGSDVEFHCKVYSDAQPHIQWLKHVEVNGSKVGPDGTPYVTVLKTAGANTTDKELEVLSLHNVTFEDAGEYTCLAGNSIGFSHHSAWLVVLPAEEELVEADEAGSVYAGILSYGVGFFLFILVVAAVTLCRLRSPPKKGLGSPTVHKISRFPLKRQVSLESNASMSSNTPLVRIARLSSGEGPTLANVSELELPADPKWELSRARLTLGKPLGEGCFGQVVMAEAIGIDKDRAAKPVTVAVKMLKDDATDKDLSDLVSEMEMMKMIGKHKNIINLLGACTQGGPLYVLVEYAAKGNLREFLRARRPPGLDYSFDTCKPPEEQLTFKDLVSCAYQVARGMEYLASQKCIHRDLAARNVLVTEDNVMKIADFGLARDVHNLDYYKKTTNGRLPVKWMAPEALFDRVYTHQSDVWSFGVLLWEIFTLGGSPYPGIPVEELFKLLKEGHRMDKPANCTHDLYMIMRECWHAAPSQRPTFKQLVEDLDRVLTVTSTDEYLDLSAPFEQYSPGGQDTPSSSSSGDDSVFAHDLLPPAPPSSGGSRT
To be noted: read-out: FGFR3 (Kd nM).

Test [4] has as its target T4, FGFR4 (Homo sapiens, UniProt P22455).
T4 construct: made in house; host or cells: E. coli derived from BL21, infected with T7 phage
To be noted: read-out: FGFR4 (Kd nM).

T4 sequence (P22455 22-802): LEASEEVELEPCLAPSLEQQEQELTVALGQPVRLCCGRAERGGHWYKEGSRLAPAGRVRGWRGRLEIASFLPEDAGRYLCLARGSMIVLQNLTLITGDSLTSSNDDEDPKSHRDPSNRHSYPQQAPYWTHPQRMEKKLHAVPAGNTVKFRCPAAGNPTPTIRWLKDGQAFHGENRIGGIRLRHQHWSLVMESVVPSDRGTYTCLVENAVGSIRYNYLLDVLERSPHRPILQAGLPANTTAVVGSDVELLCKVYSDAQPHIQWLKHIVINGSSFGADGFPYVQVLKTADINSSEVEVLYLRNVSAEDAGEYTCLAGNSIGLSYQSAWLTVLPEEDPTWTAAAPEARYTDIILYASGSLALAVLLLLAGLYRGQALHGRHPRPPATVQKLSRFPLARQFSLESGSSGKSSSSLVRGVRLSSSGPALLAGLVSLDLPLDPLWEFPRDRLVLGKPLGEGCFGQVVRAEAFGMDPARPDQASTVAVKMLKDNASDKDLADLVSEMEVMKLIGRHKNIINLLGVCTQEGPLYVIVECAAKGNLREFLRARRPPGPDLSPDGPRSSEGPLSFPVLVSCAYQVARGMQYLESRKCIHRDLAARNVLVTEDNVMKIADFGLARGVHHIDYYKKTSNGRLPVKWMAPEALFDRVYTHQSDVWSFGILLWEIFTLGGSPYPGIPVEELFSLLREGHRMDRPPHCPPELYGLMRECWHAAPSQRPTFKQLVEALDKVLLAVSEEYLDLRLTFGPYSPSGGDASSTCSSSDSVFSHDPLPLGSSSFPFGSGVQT

In the case of `COc1cc(-c2n[nH]c3ccc(O[C@H](C)c4c(Cl)cncc4Cl)cc23)cc(C#N)c1OC1CCNCC1` [Example 105, 5-[5-[(1R)-1-(3,5-dichloro-4-pyridyl)ethoxy]-1H-indazol-3-yl]-3-methoxy-2-(4-piperidyloxy)benzonitrile], the Kd in test [1] was above 1000 nM; in test [2] it was above 1000 nM; in test [3], 250 to 1000 nM; in test [4], 0.1 to 100 nM.
With `COc1ncc(-c2n[nH]c3ccc(O[C@H](C)c4c(Cl)cncc4Cl)cc23)cc1NC(=O)N1CCOCC1` [Example 5, (R)—N-(5-(5-(1-(3,5-Dichloropyridin-4-yl)ethoxy)-1H-indazol-3-yl)-2-methoxypyridin-3-yl)morpholine-4-carboxamide], the dissociation constant (Kd) in test [1] is above 1000 nM; in test [2], 100 to 250 nM; in test [3], 250 to 1000 nM; in test [4] it was 0.1 to 100 nM.
In the same order, the values of `C[C@@H](Oc1ccc2[nH]nc(-c3cnc(NC4CCOCC4)c(C#N)c3)c2c1)c1c(Cl)cncc1Cl` [Example 132, (R)-5-(5-(1-(3,5-dichloropyridin-4-yl)ethoxy)-1H-indazol-3-yl)-2-((tetrahydro-2H-pyran-4-yl)amino)nicotinonitrile] are 0.1 to 100 nM, 0.1 to 100 nM, 0.1 to 100 nM and 0.1 to 100 nM.
Regarding `Cc1cnnc(C)c1[C@@H](C)Oc1ccc2[nH]nc(-c3cc(C#N)cc(C4CCOC4)c3)c2c1` (stereo partly drawn) [Example 90, 3-(5-((R)-1-(3,5-dimethylpyridazin-4-yl)ethoxy)-1H-indazol-3-yl)-5-(tetrahydrofuran-3-yl)benzonitrile], the Kd in test [1] was 250 to 1000 nM; in test [2], 0.1 to 100 nM; in test [3], 0.1 to 100 nM; in test [4] it was 0.1 to 100 nM.
Turning to `C[C@@H](Oc1ccc2[nH]nc(-c3cnc(N)c(OCC(F)(F)F)c3)c2c1)c1c(Cl)cncc1Cl` [Example 37, 5-[5-[(1R)-1-(3,5-Dichloro-4-pyridyl)ethoxy]-1H-indazol-3-yl]-3-(2,2,2-trifluoroethoxy)pyridin-2-amine], the Kd is above 1000 nM in test [1], above 1000 nM in test [2], above 1000 nM in test [3] and 0.1 to 100 nM in test [4].
With `C[C@@H](Oc1ccc2[nH]nc(-c3ccc(NC(=O)C4CC4)nc3)c2c1)c1c(Cl)cncc1Cl` [Example 11, (R)—N-(5-(5-(1-(3,5-Dichloropyridin-4-yl)ethoxy)-1H-indazol-3-yl)pyridin-2-yl)cyclopropanecarboxamide], the Kd in test [1] is 0.1 to 100 nM; in test [2], 100 to 250 nM; in test [3], 0.1 to 100 nM; in test [4], 0.1 to 100 nM.
As for `COc1cc2[nH]nc(-c3cc(C)c(OC)c(C#N)c3)c2cc1O[C@H](C)c1c(C)cnnc1C` [Example 116, (R)-5-(5-(1-(3,5-dimethylpyridazin-4-yl)ethoxy)-6-methoxy-1H-indazol-3-yl)-2-methoxy-3-methylbenzonitrile], the equilibrium dissociation constant (Kd) in test [1], in test [2], in test [3] and in test [4] was 0.1 to 100 nM throughout.
Turning to `Cc1cnnc(C)c1[C@H](C)Oc1ccc2[nH]nc(-c3cc(C#N)cc(N4CCOCC4)c3)c2c1` [Example 65, 3-[5-[(1S)-1-(3,5-Dimethylpyridazin-4-yl)ethoxy]-1H-indazol-3-yl]-5-morpholino-benzonitrile], the Kd in test [1], in test [2], in test [3] and in test [4] was above 1000 nM each time.
Regarding `C[C@@H](Oc1ccc2[nH]nc(-c3ccc4c(c3)CCC3(CCNCC3)O4)c2c1)c1c(Cl)cncc1Cl` [Example 104, 6-[5-[(1R)-1-(3,5-dichloro-4-pyridyl)ethoxy]-1H-indazol-3-yl]spiro[chromane-2,4′-piperidine]], the equilibrium dissociation constant (Kd) in test [1], in test [2], in test [3] and in test [4] was 0.1 to 100 nM in each case.
Consider `COc1cc2[nH]nc(-c3cnc(O[C@@H]4CCOC4)c(C#N)c3)c2cc1O[C@H](C)c1c(Cl)cncc1Cl` [Example 136, 5-(5-((R)-1-(3,5-dichloropyridin-4-yl)ethoxy)-6-methoxy-1H-indazol-3-yl)-2-(((R)-tetrahydrofuran-3-yl)oxy)nicotinonitrile], for which the Kd in test [1], in test [2], in test [3] and in test [4] was 0.1 to 100 nM each time.
Take `CC(C)N1CCC(Oc2ccc(-c3n[nH]c4ccc(O[C@H](C)c5c(Cl)cncc5Cl)cc34)cc2C#N)CC1` [Example 124, 5-[5-[(1R)-1-(3,5-dichloro-4-pyridyl)ethoxy]-1H-indazol-3-yl]-2-[(1-isopropyl-4-piperidyl)oxy]benzonitrile]: the Kd in test [1], in test [2], in test [3] and in test [4] was 0.1 to 100 nM throughout.
Turning to `C[C@@H](Oc1ccc2[nH]nc(-c3cc(C#N)cc(C4CC4)c3)c2c1)c1c(Cl)cncc1Cl` [Example 109, (R)-3-cyclopropyl-5-(5-(1-(3,5-dichloropyridin-4-yl)ethoxy)-1H-indazol-3-yl)benzonitrile], the dissociation constant Kd is above 1000 nM in test [1], above 1000 nM in test [2], 250 to 1000 nM in test [3] and 0.1 to 100 nM in test [4].
As for `Cc1ncc(Cl)c([C@@H](C)Oc2ccc3[nH]nc(-c4ccc5c(c4)COC4(CCN(CC(F)(F)F)CC4)O5)c3c2)c1Cl` [Example 167, 6-[5-[(1R)-1-(3,5-dichloro-2-methyl-4-pyridyl)ethoxy]-1H-indazol-3-yl]-1′-(2,2,2-trifluoroethyl)spiro[4H-1,3-benzodioxine-2,4′-piperidine]], the Kd is 100 to 250 nM in test [1], 100 to 250 nM in test [2], 0.1 to 100 nM in test [3] and 0.1 to 100 nM in test [4].
`Cc1cnnc(C)c1[C@@H](C)Oc1ccc2[nH]nc(-c3cc(C#N)cc(OC4CCOCC4)c3)c2c1` [Example 71, 3-[5-[(1R)-1-(3,5-dimethylpyridazin-4-yl)ethoxy]-1H-indazol-3-yl]-5-tetrahydropyran-4-yloxy-benzonitrile]: the Kd is 250 to 1000 nM in test [1], above 1000 nM in test [2], 250 to 1000 nM in test [3] and 0.1 to 100 nM in test [4].
Turning to `COc1ncc(-c2n[nH]c3ccc(O[C@H](C)c4c(Cl)cncc4Cl)cc23)cc1NC(=O)CN(C)C` [Example 15, N-[5-[5-[(1R)-1-(3,5-dichloro-4-pyridyl)ethoxy]-1H-indazol-3-yl]-2-methoxy-3-pyridyl]-2-(dimethylamino)acetamide], the dissociation constant (Kd) was above 1000 nM in test [1], above 1000 nM in test [2], 100 to 250 nM in test [3] and 0.1 to 100 nM in test [4].
Regarding `C[C@@H](Oc1ccc2[nH]nc(-c3ccc4c(c3)COC3(CCN(CC(F)F)CC3)O4)c2c1)c1c(Cl)cncc1Cl` [Example 168, 6-[5-[(1R)-1-(3,5-dichloro-4-pyridyl)ethoxy]-1H-indazol-3-yl]-1′-(2,2-difluoroethyl)spiro[4H-1,3-benzodioxine-2,4′-piperidine]], the Kd in test [1], in test [2], in test [3] and in test [4] was 0.1 to 100 nM throughout.
Regarding `COc1cc(-c2n[nH]c3ccc(O[C@H](C)c4c(Cl)cnc(F)c4Cl)cc23)cc2c1OC1(CCN(C(C)C)CC1)OC2` [Example 123, (R)-6-(5-(1-(3,5-dichloro-2-fluoropyridin-4-yl)ethoxy)-1H-indazol-3-yl)-1′-isopropyl-8-methoxy-4H-spiro[benzo[d][1,3]dioxine-2,4′-piperidine]], the Kd fell in the range of 250 to 1000 nM in test [1], 250 to 1000 nM in test [2], 0.1 to 100 nM in test [3] and 0.1 to 100 nM in test [4].
For the molecule `COc1cc(-c2n[nH]c3ccc(O[C@H](C)c4c(Cl)cncc4Cl)cc23)cc(C#N)c1OC` [Example 81, 5-[5-[(1R)-1-(3,5-dichloro-4-pyridyl)ethoxy]-1H-indazol-3-yl]-2,3-dimethoxy-benzonitrile], the equilibrium dissociation constant (Kd) in test [1] is above 1000 nM; in test [2], above 1000 nM; in test [3], above 1000 nM; in test [4] it was 0.1 to 100 nM.
As for `Cc1cc(-c2n[nH]c3ccc(O[C@H](C)c4c(C)cnnc4C)cc23)cc(C#N)c1OC1CCN(C2CCC2)CC1` [Example 120, (R)-2-((1-cyclobutylpiperidin-4-yl)oxy)-5-(5-(1-(3,5-dimethylpyridazin-4-yl)ethoxy)-1H-indazol-3-yl)-3-methylbenzonitrile], the Kd in test [1], in test [2], in test [3] and in test [4] was 0.1 to 100 nM in each case.
Take `Cc1cc(C(=O)N2CCOc3ncc(-c4n[nH]c5ccc(O[C@H](C)c6c(Cl)cncc6Cl)cc45)cc32)ccn1` [Example 23, [7-[5-[(1R)-1-(3,5-dichloro-4-pyridyl)ethoxy]-1H-indazol-3-yl]-2,3-dihydro-pyrido[2,3-b][1,4]oxazin-1-yl]-(2-methyl-4-pyridyl)methanone]: the Kd in test [1] is above 1000 nM; in test [2], above 1000 nM; in test [3], 250 to 1000 nM; in test [4], 0.1 to 100 nM.
With `C[C@@H](Oc1ccc2[nH]nc(-c3cnc4c(c3)N(CCN3CCOCC3)CCO4)c2c1)c1c(Cl)cncc1Cl` [Example 50, 7-[5-[(1R)-1-(3,5-dichloro-4-pyridyl)ethoxy]-1H-indazol-3-yl]-1-(2-morpholino-ethyl)-2,3-dihydropyrido[2,3-b][1,4]oxazine], the dissociation constant Kd was above 1000 nM in test [1], above 1000 nM in test [2], above 1000 nM in test [3] and 0.1 to 100 nM in test [4].
As to `C[C@@H](Oc1ccc2[nH]nc(-c3cnc(O[C@H]4CCOC4)c(C#N)c3)c2c1)c1c(Cl)cncc1Cl` [Example 133, 5-(5-((R)-1-(3,5-dichloropyridin-4-yl)ethoxy)-1H-indazol-3-yl)-2-(((S)-tetrahydrofuran-3-yl)oxy)nicotinonitrile], the dissociation constant Kd in test [1] was in the range of 100 to 250 nM; in test [2] it was 0.1 to 100 nM; in test [3], 0.1 to 100 nM; in test [4], 0.1 to 100 nM.

Usually Kd stands for the equilibrium constant for the complex coming apart.
